Data from the supplement of paper PMC8372320.

Experiment: photocatalytic hydrogen evolution rate (per 5 mg catalyst); higher = more photocatalytic H2 evolution; extreme values may be limits of the assay
Details: catalyst mass (mg): 5; Pt cocatalyst (wt%): 3; sacrificial medium: triethylamine/methanol/water 1:1:1
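Note: aromatic molecules in triethylamine/methanol/water with Pt photoreduced in situ, irradiated 3 h under a 1 sun AM 1.5G solar simulator (350–1000 nm), H2 quantified by headspace gas chromatography; listed molecule itself used as the photocatalyst at 5 mg per vial.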

| photocatalytic hydrogen evolution rate | SMILES |
| --- | --- |
| 0.729 µmol/h | Brc1ccc(N(c2ccccc2)c2ccc(Br)cc2)cc1 |
| 1.84 µmol/h | O=C(O)c1ccc(-c2ccc(-c3ccc(C(=O)O)cc3)cc2)cc1 |
| 0.174 µmol/h | Brc1ccc(-c2ccc(-c3ccc(Br)s3)c3nsnc23)s1 |
| 0 µmol/h | CN1C(=O)c2ccc3c4ccc5c6c(ccc(c7ccc(c2c37)C1=O)c64)C(=O)N(C)C5=O |
| 0 µmol/h | c1ccc2[nH]ccc2c1 |
| 0 µmol/h | O=Cc1ccnc(-c2cc(C=O)ccn2)c1 |
| 0.00118 µmol/h | CC(C)(O)c1ccc(C(C)(C)O)cc1 |
| 0 µmol/h | CC(C)(C)c1cc(C=O)cc(C(C)(C)C)c1O |
| 0 µmol/h | Cc1[nH]c(C=O)cc1C#N |
| 0.0661 µmol/h | CCc1ccc(C(=O)CC#N)cc1 |
| 0.0838 µmol/h | COC(=O)c1ccc(C(=O)OC)cc1 |
| 0.0671 µmol/h | Cc1ccc(N(c2ccc(C)cc2)c2ccc(C=O)cc2)cc1 |
| 0 µmol/h | O=C1c2ccccc2Cc2ccccc21 |
| 0 µmol/h | N#Cc1cc(Br)c(N)c(Br)c1 |
| 0.139 µmol/h | N#Cc1ccc(C=O)nc1 |
| 0 µmol/h | N#Cc1cccc(N)c1 |
| 0.0617 µmol/h | N#Cc1ccc(C#N)nc1 |
| 1.49 µmol/h | COC(=O)c1ccc2cc(B3OC(C)(C)C(C)(C)O3)ccc2c1 |
| 0 µmol/h | Cc1ccc(-c2ccc(C)cc2)cc1 |
| 0 µmol/h | Cc1cc2c(cc1N)S(=O)(=O)c1cc(N)c(C)cc1-2 |
| 14.6 µmol/h | O=c1c2ccccc2sc2ccccc12 |
| 1.32 µmol/h | C1=Cc2nc1c(-c1ccccc1)c1ccc([nH]1)c(-c1ccccc1)c1nc(c(-c3ccccc3)c3ccc([nH]3)c2-c2ccccc2)C=C1 |
| 0.052 µmol/h | O=C(O)c1ccc(-c2cc(-c3ccc(C(=O)O)cc3)c(-c3ccc(C(=O)O)cc3)cc2-c2ccc(C(=O)O)cc2)cc1 |

| photocatalytic hydrogen evolution rate | SMILES |
| --- | --- |
| 0.00401 µmol/h | Oc1ccc(-c2ccc(O)cc2)cc1 |
| 0 µmol/h | Brc1ccc(Br)c2nonc12 |
| 0 µmol/h | Nc1ccc(-c2cc(-c3ccc(N)cc3)cc(-c3ccc(N)cc3)c2)cc1 |
| 0.468 µmol/h | N#Cc1cnc(N)c(C#N)c1 |
| 0.922 µmol/h | Brc1ccc(N(c2ccc(Br)cc2)c2ccc(Br)cc2)cc1 |
| 0 µmol/h | C#Cc1ccc(N)cc1 |
| 0.168 µmol/h | c1cncc(-c2nc(-c3cccnc3)nc(-c3cccnc3)n2)c1 |
| 0 µmol/h | C#Cc1ccc(C=O)cc1 |
| 0.153 µmol/h | N#Cc1ccc(C#N)c(OC(F)(F)F)c1 |
| 0 µmol/h | Nc1ccc(-c2c3nc(c(-c4ccc(N)cc4)c4ccc([nH]4)c(-c4ccc(N)cc4)c4nc(c(-c5ccc(N)cc5)c5ccc2[nH]5)C=C4)C=C3)cc1 |
| 24.5 µmol/h | O=C1NC(=O)c2cccc3cccc1c23 |
| 0.015 µmol/h | N#Cc1c[nH]c2ccc(Br)cc12 |
| 0 µmol/h | N#Cc1cccc(-c2ccc(N)cc2)c1 |
| 0 µmol/h | Fc1c(I)ccc(I)c1F |
| 0 µmol/h | O=Cc1cccc(C=O)n1 |
| 0.0397 µmol/h | Cn1cnc(C#N)c1C#N |
| 6.86 µmol/h | O=C1c2cc3ccccc3cc2C(=O)c2cc3ccccc3cc21 |
| 0 µmol/h | Nc1cc(C(=O)O)cc(C(=O)O)c1 |
| 0 µmol/h | Brc1cccc(Br)n1 |
| 0.132 µmol/h | CCCCCCCCCCCCC1(CCCCCCCCCCCC)c2cc(B(O)O)ccc2-c2ccc(B(O)O)cc21 |
| 0 µmol/h | Brc1ccc(-c2ccc(Br)s2)s1 |
| 3.33 µmol/h | O=c1c2ccccc2n(-c2ccccc2)c2ccccc12 |
| 9.93 µmol/h | O=Cc1ccc2ccccc2c1 |

| photocatalytic hydrogen evolution rate | SMILES |
| --- | --- |
| 0.105 µmol/h | CCN1C(=O)C(=O)c2cc(Br)cc(Br)c21 |
| 0.00797 µmol/h | Nc1ccc(S(=O)(=O)c2ccc(N)cc2)cc1 |
| 0 µmol/h | C#Cc1ccc(C#N)cc1 |
| 0 µmol/h | Brc1cccc(-c2cccc(Br)n2)n1 |
| 0 µmol/h | Fc1cc(Br)c(F)cc1Br |
| 0 µmol/h | Oc1ccc2ccccc2c1-c1c(O)ccc2ccccc12 |
| 0 µmol/h | O=c1[nH]cc[nH]1 |
| 5.52 µmol/h | CC(=O)c1ccc(C(C)=O)cc1 |
| 0 µmol/h | O=c1c2ccccc2c2cc3c(=O)c4ccccc4c3cc12 |
| 0.0873 µmol/h | N#Cc1cncc(Br)n1 |
| 2.73 µmol/h | O=Cc1ccc(N2CCS(=O)(=O)CC2)cc1 |
| 1.03 µmol/h | O=Cc1c(O)c(C=O)c(O)c(C=O)c1O |
| 0.0345 µmol/h | Cc1cncc(C)n1 |
| 0.369 µmol/h | Brc1ccc2ccc3cccc4ccc1c2c34 |
| 0 µmol/h | c1ccc(-c2c(-c3ccccc3)c(-c3ccccc3)c(-c3ccccc3)c(-c3ccccc3)c2-c2ccccc2)cc1 |
| 0 µmol/h | Brc1sc(Br)c(Br)c1Br |
| 0 µmol/h | N#Cc1cncc(Br)c1 |
| 1.29 µmol/h | Brc1ccc(Br)c2nsnc12 |
| 0 µmol/h | CC1(C)OB(c2ccc(-c3cccs3)s2)OC1(C)C |
| 0 µmol/h | N#Cc1cscc1C#N |
| 0 µmol/h | C#Cc1cc(C(=O)O)cc(C(=O)O)c1 |
| 0.00108 µmol/h | CCOC(=O)c1nc(C(=O)OCC)nc(C(=O)OCC)n1 |
| 0 µmol/h | N#CCC(=O)c1ccc(Br)cc1 |

| photocatalytic hydrogen evolution rate | SMILES |
| --- | --- |
| 0.000189 µmol/h | O=Cc1cc(O)cc(Cl)c1 |
| 0 µmol/h | N#Cc1ccc(F)c(N)c1 |
| 0.0514 µmol/h | Brc1cc(Br)cc(-c2cc(Br)cc(Br)c2)c1 |
| 0.0789 µmol/h | c1ccc(-c2nc(-c3ccccc3)nc(-c3ccccc3)n2)cc1 |
| 0 µmol/h | Cc1cnc(C#N)c(C#N)n1 |
| 0.0266 µmol/h | COC(=O)c1cccc(C(=O)OC)n1 |
| 0 µmol/h | ClCc1c2ccccc2c(CCl)c2ccccc12 |
| 0.0501 µmol/h | N#Cc1cnccc1Br |
| 0 µmol/h | c1ccc(-c2cc(-c3ccccc3)nc(-c3ccccc3)c2)cc1 |
| 1.45 µmol/h | O=Cc1ccc(Br)c(Cl)c1 |
| 0.0353 µmol/h | N#Cc1c(F)c(F)c(F)c(F)c1F |
| 0 µmol/h | C1=CSC(=C2SC=CS2)S1 |
| 0.0799 µmol/h | CC1(C)c2cc(Br)ccc2-c2ccc(Br)cc21 |
| 0.34 µmol/h | CN(C)c1ccc(C=O)cc1 |
| 0.000384 µmol/h | O=c1c(Br)c[nH]cc1Br |
| 0 µmol/h | OB(O)c1ccc(-c2ccc(B(O)O)cc2)cc1 |
| 0 µmol/h | Cc1cc(C#N)c(C)cc1C#N |
| 0.0457 µmol/h | c1ccc(-c2cc(-c3ccccc3)cc(-c3ccccc3)c2)cc1 |
| 0.135 µmol/h | CC1(C)OB(c2ccc(-n3c4ccccc4c4ccccc43)cc2)OC1(C)C |
| 0.00977 µmol/h | OCc1ccc(-c2ccc(CO)cc2)cc1 |
| 0 µmol/h | O=C1Cc2cc(Br)cc(Br)c2N1 |
| 0.0996 µmol/h | O=C1C(c2ccccc2)=C(c2ccccc2)C(c2ccccc2)=C1c1ccccc1 |
| 0 µmol/h | CN(C)c1ccncc1 |

| photocatalytic hydrogen evolution rate | SMILES |
| --- | --- |
| 0 µmol/h | Cc1cc(C#N)cnc1Br |
| 2.43 µmol/h | O=Cc1cccc(-c2ccccn2)c1 |
| 0 µmol/h | CC1(C)OB(c2ccc(B3OC(C)(C)C(C)(C)O3)c3nsnc23)OC1(C)C |
| 0 µmol/h | c1ccc(C(=C(c2ccccc2)c2ccccc2)c2ccccc2)cc1 |
| 0 µmol/h | O=C1c2ccc(Br)cc2C(=O)c2ccc(Br)cc21 |
| 0 µmol/h | Nc1ccc(-c2ccc(N)c([N+](=O)[O-])c2)cc1[N+](=O)[O-] |
| 0.0704 µmol/h | O=C(O)c1ccc(-c2ccc(C(=O)O)cc2)cc1 |
| 0 µmol/h | COc1ccc(I)cc1 |
| 0 µmol/h | N#Cc1c(O)ccc(O)c1C#N |
| 0.167 µmol/h | O=Cc1sc(C=O)c(Br)c1Br |
| 0 µmol/h | c1ccc(Nc2cc(Nc3ccccc3)cc(Nc3ccccc3)c2)cc1 |
| 0 µmol/h | N#CC(C#N)=c1cc(F)c(=C(C#N)C#N)cc1F |
| 0 µmol/h | Brc1ccc2ccccc2c1-c1c(Br)ccc2ccccc12 |
| 0 µmol/h | Fc1cc(Br)ccc1Br |
| 0 µmol/h | Nc1cc(Br)c(Br)cc1N |
| 8.19 µmol/h | O=Cc1ccc(C(=O)O)cc1O |
| 0 µmol/h | Oc1cc(Br)c(O)cc1Br |
| 0 µmol/h | N#Cc1ccc(Br)nc1 |
| 0 µmol/h | N#CCc1ccccc1-c1ccccc1CC#N |

| SMILES | photocatalytic hydrogen evolution rate |
| --- | --- |
| O=C1c2ccccc2C(=O)c2ccccc21 | 0 µmol/h |
| N#CCC(=O)c1ccccc1 | 0 µmol/h |
| Brc1ccc(Br)cc1 | 0 µmol/h |
| N#Cc1cccc(C=O)c1 | 0.204 µmol/h |
| COc1c(Br)cc(Br)cc1Br | 0 µmol/h |
| N#Cc1ccc(N)cc1 | 0 µmol/h |
| C1=Cc2cccc3cccc1c23 | 0 µmol/h |
| c1cc2ccc3cccc4ccc(c1)c2c34 | 0.198 µmol/h |
| Brc1ccc2ccccc2c1 | 0.0179 µmol/h |
| c1ccc(-c2cccc(-c3ccccc3)c2)cc1 | 0 µmol/h |
| Brc1ccccc1-c1ccccc1Br | 0 µmol/h |
| N#CCc1cccc(CC#N)c1 | 0 µmol/h |
| COc1ccc(C=O)cc1O | 0 µmol/h |
